pIC50: −log10 of the molar value. Read-outs that look alike come from different tables or passages of the source.
Tests used:
E. coli topoisomerase I = E. coli topoisomerase I (Escherichia coli, UniProt P06612); assay: Bacterial topoisomerase I relaxation activity inhibition assay (EcTopI); format: biochemical; details: Table 1; individual compounds tested as crude material; read-out: EcTopI relaxation inhibition (IC50)
Description: The relaxation activity of bacterial topoisomerase I was assayed in a buffer containing 10 mM Tris-HCl, pH 8.0, 50 mM NaCl, 0.1 mg/mL gelatin, and 0.5 mM MgCl2. One microliter of the compounds dissolved in DMF (dimethylformamide) or solvent alone was mixed with 10 μl of the reaction buffer containing 10 ng of enzyme before the addition of 9 μl of reaction buffer containing 160 ng of supercoiled pBAD/Thio plasmid DNA purified by cesium chloride gradient as substrate. Following incubation at 37° C. for 30 min, the reactions were terminated by the addition of 4 μl of 50% glycerol, 50 mM EDTA, and 0.5% (v/v) bromophenol blue, and analyzed by agarose gel electrophoresis. The gels were stained in ethidium bromide and photographed under UV light.

Human Topoisomerase IIα = molecular target: T1, Human Topoisomerase IIα (Homo sapiens, UniProt P11388); assay: Human topoisomerase IIα decatenation inhibition assay; format: biochemical
T1 construct: purchased TopoGen
T1 sequence (P11388 whole entry): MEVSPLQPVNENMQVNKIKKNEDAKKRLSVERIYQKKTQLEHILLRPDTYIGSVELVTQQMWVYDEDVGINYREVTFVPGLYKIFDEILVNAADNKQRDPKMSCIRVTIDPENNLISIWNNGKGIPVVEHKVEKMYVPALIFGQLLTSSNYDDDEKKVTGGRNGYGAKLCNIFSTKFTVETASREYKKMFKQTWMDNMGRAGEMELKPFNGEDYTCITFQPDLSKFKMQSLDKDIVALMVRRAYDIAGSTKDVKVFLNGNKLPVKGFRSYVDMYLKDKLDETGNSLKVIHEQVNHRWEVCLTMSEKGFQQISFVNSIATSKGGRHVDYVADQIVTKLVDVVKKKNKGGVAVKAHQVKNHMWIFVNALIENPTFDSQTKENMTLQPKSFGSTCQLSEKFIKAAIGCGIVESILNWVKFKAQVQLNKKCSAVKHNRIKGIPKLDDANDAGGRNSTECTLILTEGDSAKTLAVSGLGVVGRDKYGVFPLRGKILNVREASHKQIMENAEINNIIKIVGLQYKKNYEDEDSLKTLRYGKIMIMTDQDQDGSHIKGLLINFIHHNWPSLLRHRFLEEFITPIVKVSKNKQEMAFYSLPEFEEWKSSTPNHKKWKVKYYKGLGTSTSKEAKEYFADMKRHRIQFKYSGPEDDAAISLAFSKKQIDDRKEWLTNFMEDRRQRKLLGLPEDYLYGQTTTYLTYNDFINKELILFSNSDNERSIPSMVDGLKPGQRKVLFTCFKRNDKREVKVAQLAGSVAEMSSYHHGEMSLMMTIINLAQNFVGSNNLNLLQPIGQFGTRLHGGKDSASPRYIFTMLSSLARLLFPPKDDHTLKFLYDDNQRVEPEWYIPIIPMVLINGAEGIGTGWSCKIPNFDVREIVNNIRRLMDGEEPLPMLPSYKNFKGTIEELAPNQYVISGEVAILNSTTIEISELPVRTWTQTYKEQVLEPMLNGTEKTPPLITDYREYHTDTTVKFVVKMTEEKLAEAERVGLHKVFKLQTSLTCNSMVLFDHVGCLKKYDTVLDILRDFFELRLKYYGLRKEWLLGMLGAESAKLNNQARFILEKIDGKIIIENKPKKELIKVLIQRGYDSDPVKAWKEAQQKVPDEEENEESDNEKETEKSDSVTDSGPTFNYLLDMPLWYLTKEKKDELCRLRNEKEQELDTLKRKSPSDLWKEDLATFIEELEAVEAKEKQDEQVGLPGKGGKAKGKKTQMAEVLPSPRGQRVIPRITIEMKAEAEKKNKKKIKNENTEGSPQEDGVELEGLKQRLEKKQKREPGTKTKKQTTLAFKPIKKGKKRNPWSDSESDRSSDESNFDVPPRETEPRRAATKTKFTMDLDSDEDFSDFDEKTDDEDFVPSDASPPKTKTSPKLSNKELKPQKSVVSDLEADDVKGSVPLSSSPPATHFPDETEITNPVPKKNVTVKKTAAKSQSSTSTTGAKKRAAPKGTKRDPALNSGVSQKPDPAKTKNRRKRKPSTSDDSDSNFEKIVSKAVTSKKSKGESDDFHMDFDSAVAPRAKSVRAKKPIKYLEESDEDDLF
Description: Human Topoisomerase IIα (obtained from TopoGen) assays were carried out by adding the compounds to 180 ng of kinetoplast DNA (kDNA) in the buffer supplied by the manufacturer before the addition of 2 U of the enzyme. The samples were incubated for 15 minutes at 37° C. before the addition of 4 μl of stop buffer containing 5% sarkosyl, 0.0025% bromophenol blue, and 25% glycerol. The reactions were then analyzed by electrophoresis in 1% agarose gels containing 0.5 μg ml^−1 ethidium bromide before being photographed under UV light.

[1] = molecular target: M. tuberculosis topoisomerase I (Mycobacterium tuberculosis, UniProt P9WG49); assay: biochemical; details: Table 6; read-out: IC50 M. tuberculosis topoisomerase I
Chain of M. tuberculosis topoisomerase I (P9WG49 whole entry): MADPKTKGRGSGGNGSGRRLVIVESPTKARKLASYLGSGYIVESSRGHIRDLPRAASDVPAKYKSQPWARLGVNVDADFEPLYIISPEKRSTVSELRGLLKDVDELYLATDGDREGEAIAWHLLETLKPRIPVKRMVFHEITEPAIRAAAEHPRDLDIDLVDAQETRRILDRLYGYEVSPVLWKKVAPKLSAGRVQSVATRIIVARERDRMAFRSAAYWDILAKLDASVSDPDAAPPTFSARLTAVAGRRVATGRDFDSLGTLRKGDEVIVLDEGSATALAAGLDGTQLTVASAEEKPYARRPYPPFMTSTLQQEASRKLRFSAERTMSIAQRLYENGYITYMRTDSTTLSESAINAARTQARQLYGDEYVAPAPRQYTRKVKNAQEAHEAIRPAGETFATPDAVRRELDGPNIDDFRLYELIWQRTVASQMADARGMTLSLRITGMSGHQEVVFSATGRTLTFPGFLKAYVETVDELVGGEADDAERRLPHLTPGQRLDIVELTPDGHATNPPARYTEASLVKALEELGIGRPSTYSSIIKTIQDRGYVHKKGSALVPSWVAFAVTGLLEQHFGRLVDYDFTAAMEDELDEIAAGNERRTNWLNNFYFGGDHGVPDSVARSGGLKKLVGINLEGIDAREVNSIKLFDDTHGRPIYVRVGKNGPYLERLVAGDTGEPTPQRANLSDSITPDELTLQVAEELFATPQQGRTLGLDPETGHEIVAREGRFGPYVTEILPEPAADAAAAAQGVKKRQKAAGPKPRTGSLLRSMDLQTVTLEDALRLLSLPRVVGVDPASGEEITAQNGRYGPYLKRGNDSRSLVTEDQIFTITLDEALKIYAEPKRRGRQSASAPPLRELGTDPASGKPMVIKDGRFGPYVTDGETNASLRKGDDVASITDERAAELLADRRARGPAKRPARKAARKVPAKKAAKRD

E. coli DNA gyrase = molecular target: T2, E. coli DNA gyrase (Escherichia coli, UniProt P0AES4+P0AES6); assay: DNA gyrase supercoiling inhibition assay; format: biochemical
T2 construct: purchased New England BioLabs
T2 sequence (P0AES4 whole entry, one chain of several): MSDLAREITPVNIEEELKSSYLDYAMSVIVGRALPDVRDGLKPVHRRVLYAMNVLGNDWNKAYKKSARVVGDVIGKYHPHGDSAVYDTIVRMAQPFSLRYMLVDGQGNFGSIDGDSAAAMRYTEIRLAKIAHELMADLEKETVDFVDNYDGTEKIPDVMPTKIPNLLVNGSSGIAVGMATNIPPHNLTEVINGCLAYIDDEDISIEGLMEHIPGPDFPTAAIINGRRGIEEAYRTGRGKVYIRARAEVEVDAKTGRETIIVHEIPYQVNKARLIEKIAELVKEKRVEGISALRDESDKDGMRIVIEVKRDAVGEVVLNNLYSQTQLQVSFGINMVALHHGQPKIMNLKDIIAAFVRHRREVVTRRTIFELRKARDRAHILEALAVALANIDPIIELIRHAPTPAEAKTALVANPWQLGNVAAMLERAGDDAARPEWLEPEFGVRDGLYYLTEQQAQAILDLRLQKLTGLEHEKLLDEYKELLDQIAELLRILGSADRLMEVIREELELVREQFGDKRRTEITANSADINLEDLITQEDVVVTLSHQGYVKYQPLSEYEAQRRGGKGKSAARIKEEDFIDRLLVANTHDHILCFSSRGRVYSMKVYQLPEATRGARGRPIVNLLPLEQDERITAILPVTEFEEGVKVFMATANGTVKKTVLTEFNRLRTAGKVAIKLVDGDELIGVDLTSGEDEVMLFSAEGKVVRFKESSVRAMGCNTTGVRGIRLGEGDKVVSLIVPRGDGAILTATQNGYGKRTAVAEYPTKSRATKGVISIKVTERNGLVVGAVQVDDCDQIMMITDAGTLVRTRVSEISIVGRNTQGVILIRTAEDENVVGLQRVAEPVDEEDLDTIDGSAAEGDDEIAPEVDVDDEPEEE
Description: DNA gyrase (obtained from New England BioLabs) supercoiling assays were carried out by mixing the compounds with 2 U of the enzyme in reaction buffer supplied by the manufacturer, followed by the addition of 300 ng of relaxed covalently closed circular DNA was for a final reaction volume of 20 μL. The samples were incubated at 37° C. for 30 minutes before being terminated by the addition of a buffer containing 5% SDS, 0.25% bromophenol blue, and 25% glycerol. The reactions were then analyzed by agarose gel electrophoresis.

Human topoisomerase I = molecular target: T3, Human topoisomerase I (Homo sapiens, UniProt P11387); assay: Human topoisomerase I relaxation inhibition assay; format: biochemical
T3 construct: purchased TopoGen
T3 sequence (P11387 1-765): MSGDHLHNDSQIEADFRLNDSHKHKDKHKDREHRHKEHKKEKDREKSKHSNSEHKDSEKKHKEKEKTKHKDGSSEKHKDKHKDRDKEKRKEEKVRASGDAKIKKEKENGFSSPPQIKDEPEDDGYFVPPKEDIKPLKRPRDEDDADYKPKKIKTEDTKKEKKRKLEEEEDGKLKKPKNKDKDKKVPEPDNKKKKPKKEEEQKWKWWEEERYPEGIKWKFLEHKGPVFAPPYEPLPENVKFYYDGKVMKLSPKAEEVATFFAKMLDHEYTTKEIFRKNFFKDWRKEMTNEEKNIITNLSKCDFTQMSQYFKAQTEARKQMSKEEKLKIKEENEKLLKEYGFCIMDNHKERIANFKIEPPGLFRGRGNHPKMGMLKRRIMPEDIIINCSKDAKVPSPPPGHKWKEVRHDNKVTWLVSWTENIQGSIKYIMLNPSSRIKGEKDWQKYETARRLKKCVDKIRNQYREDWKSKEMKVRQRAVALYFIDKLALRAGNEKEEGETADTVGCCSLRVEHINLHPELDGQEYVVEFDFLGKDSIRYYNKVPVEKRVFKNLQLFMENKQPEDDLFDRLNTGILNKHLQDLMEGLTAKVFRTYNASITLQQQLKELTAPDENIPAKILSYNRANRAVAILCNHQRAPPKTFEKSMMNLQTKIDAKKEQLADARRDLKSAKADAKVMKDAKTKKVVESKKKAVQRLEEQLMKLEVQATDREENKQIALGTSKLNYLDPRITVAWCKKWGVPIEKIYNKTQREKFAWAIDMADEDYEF
Description: Human topoisomerase I (obtained from TopoGen) relaxation assays were carried out with 0.5 U of enzyme in reaction buffer supplied by the manufacturer. The enzyme was mixed with the indicated concentration of compound dissolved before 160 ng of supercoiled pBAD/Thio plasmid DNA was added in the same buffer, for a final volume of 20 μL. Following incubation at 37° C. for 30 minutes, the reactions were terminated with a buffer containing 5% SDS, 0.25% bromophenol blue, and 25% glycerol, and analyzed by agarose gel electrophoresis.

[2] = supercoiling, read-out: IC50 E. coli DNA gyrase

Chain of E. coli topoisomerase I (P06612 whole entry): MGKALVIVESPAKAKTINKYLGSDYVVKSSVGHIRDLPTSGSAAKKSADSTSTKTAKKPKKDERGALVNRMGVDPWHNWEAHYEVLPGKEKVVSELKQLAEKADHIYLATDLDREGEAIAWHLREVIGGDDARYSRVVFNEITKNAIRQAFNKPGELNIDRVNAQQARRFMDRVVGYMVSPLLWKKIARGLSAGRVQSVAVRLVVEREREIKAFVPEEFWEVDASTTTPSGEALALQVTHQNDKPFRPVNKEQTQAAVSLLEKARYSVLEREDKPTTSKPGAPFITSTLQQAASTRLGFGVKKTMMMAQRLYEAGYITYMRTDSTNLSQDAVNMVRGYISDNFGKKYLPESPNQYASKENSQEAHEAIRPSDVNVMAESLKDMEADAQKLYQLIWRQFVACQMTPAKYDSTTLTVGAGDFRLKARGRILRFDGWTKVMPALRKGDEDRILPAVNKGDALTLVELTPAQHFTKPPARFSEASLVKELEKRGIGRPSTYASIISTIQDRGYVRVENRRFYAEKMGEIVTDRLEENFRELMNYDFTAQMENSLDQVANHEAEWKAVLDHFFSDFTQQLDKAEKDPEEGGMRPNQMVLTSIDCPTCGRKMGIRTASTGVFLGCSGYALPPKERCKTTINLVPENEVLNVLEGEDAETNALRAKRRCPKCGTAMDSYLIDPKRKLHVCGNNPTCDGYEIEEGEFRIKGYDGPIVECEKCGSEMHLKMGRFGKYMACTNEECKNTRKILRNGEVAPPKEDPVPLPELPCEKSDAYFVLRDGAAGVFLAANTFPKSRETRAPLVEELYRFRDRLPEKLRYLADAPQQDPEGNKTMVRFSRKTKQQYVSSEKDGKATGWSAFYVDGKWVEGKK

Structure (SMILES)	pIC50 (E. coli topoisomerase I)	other results
CNCCCC[C@@H](CN)NC[C@H](CCCCNC)NCCCc1cccc(Br)c1 [Compound 2471-1]	3.80	–
CNCCCC[C@@H](CN)NC[C@H](CCCNC(=N)N)NCCCc1cccc(Br)c1 [Compound 2471-4]	3.80	–
CNCCCC[C@@H](CN)NC[C@H](CCCNC(=N)N)NCCCc1ccc(O)c(O)c1 [Compound 2471-5]	< 3.80	–
CCC[C@H](CN[C@H](CN)CCCCNC)NCCCc1cccc(Br)c1 [Compound 2471-7]	3.80	–
CCC[C@H](CN[C@H](CN)CCCCNC)NCCCc1ccc(O)c(O)c1 [Compound 2471-8]	< 3.80	–
CCCC[C@@H](CN[C@H](CN)CCCCNC)NCCCc1cccc(Br)c1 [Compound 2471-10]	3.80	–
CCCC[C@@H](CN[C@H](CN)CCCCNC)NCCCc1ccc(O)c(O)c1 [Compound 2471-11]	< 3.80	–
CNCCCC[C@@H](CN[C@H](CN)CCCN)NCCCc1cccc(Br)c1 [Compound 2471-13]	3.80	–
CNCCCC[C@@H](CN[C@H](CN)CCCN)NCCCc1ccc(O)c(O)c1 [Compound 2471-14]	< 3.80	–
N=C(N)NCCC[C@@H](CN[C@H](CN)CCCN)NCCCc1ccc(O)c(O)c1 [Compound 2471-17]	< 3.80	–
CCC[C@H](CN[C@H](CN)CCCN)NCCCc1cccc(Br)c1 [Compound 2471-19]	3.80	–
CCC[C@H](CN[C@H](CN)CCCN)NCCCc1ccc(O)c(O)c1 [Compound 2471-20]	< 3.80	–
CCCC[C@@H](CN[C@H](CN)CCCN)NCCCc1cccc(Br)c1 [Compound 2471-22]	3.80	–
CCCC[C@@H](CN[C@H](CN)CCCN)NCCCc1ccc(O)c(O)c1 [Compound 2471-23]	< 3.80	–
CNCCCC[C@H](CN)NC[C@H](CCCCNC)NCCCc1cccc(Br)c1 [Compound 2471-25]	3.80	–
CNCCCC[C@H](CN)NC[C@H](CCCNC(=N)N)NCCCc1ccc(O)c(O)c1 [Compound 2471-29]	3.92	–
CCC[C@H](CN[C@@H](CN)CCCCNC)NCCCc1cccc(Br)c1 [Compound 2471-31]	3.80	–
CCC[C@H](CN[C@@H](CN)CCCCNC)NCCCc1ccc(O)c(O)c1 [Compound 2471-32]	< 3.80	–
CCCC[C@@H](CN[C@@H](CN)CCCCNC)NCCCc1cccc(Br)c1 [Compound 2471-34]	3.80	–
CCCC[C@@H](CN[C@@H](CN)CCCCNC)NCCCc1ccc(O)c(O)c1 [Compound 2471-35]	< 3.80	–
CCCC[C@H](CN[C@H](CN)CC1CCCCC1)NCC1CCC(C(C)(C)C)CC1 (some centres unmarked) [Compound 2471-50]	3.80	–

Structure (SMILES)	pIC50 (E. coli topoisomerase I)	other results
CCCC[C@H](CN[C@H](CN)CC1CCCCC1)NCCCCCC1CCCCC1 [Compound 2471-51]	3.80	–
CNCCC[C@@H](CN[C@H](CN)CC1CCCCC1)NCCCc1cc(C(F)(F)F)cc(C(F)(F)F)c1 [Compound 2471-52]	3.80	–
CNCCC[C@@H](CN[C@H](CN)CC1CCCCC1)NCC1CCC(C(C)(C)C)CC1 (some centres unmarked) [Compound 2471-53]	< 3.80	–
CNCCC[C@@H](CN[C@H](CN)CC1CCCCC1)NCCCCCC1CCCCC1 [Compound 2471-54]	< 3.80	–
CNCCC[C@H](CN[C@H](CN)CC1CCCCC1)NCCCc1cc(C(F)(F)F)cc(C(F)(F)F)c1 [Compound 2471-55]	3.80	–
CNCCC[C@H](CN[C@H](CN)CC1CCCCC1)NCC1CCC(C(C)(C)C)CC1 (some centres unmarked) [Compound 2471-56]	3.80	–
CNCCC[C@H](CN[C@H](CN)CC1CCCCC1)NCCCCCC1CCCCC1 [Compound 2471-57]	3.80	–
CCCC[C@H](CN[C@@H](CN)CC1CCCCC1)NCC1CCC(C(C)(C)C)CC1 (some centres unmarked) [Compound 2471-62]	3.80	–
CCCC[C@H](CN[C@@H](CN)CC1CCCCC1)NCCCCCC1CCCCC1 [Compound 2471-63]	3.80	–
CNCCC[C@@H](CN[C@@H](CN)CC1CCCCC1)NCCCc1cc(C(F)(F)F)cc(C(F)(F)F)c1 [Compound 2471-64]	3.80	–
CNCCC[C@@H](CN[C@@H](CN)CC1CCCCC1)NCC1CCC(C(C)(C)C)CC1 (some centres unmarked) [Compound 2471-65]	3.80	–
CNCCC[C@@H](CN[C@@H](CN)CC1CCCCC1)NCCCCCC1CCCCC1 [Compound 2471-66]	3.80	–
CNCCC[C@H](CN[C@@H](CN)CC1CCCCC1)NCCCc1cc(C(F)(F)F)cc(C(F)(F)F)c1 [Compound 2471-67]	3.80	–
CNCCC[C@H](CN[C@@H](CN)CC1CCCCC1)NCC1CCC(C(C)(C)C)CC1 (some centres unmarked) [Compound 2471-68]	3.80	–
CC(C)(C)C1CCC(CN[C@H](CN[C@@H](CN)CC2CCCCC2)Cc2ccc(F)cc2)CC1 (some centres unmarked) [Compound 2471-71]	4.40	–
CCC[C@H](CN)NC[C@@H](CCCNC(=N)N)NCCc1cccc2ccccc12 [Compound 2580-3]	–	pIC50 (Human Topoisomerase IIα): < 4.10; pIC50 [1]: 5.22; pIC50 (E. coli DNA gyrase; [2]): < 4.10; pIC50 (Human topoisomerase I): < 4.10
CNCCC[C@H](CN)NC[C@@H](CCCNC(=N)N)NCCc1cccc2ccccc12 [Compound 2580-15]	–	pIC50 (Human Topoisomerase IIα): < 4.05; pIC50 [1]: 6.14; pIC50 (E. coli DNA gyrase; [2]): < 4.05; pIC50 (Human topoisomerase I): < 4.05
CCCC[C@H](CN[C@@H](CN)CCCNC)NCCc1cccc2ccccc12 [Compound 2580-18]	–	pIC50 (Human Topoisomerase IIα): < 4.00; pIC50 [1]: 5.49; pIC50 (E. coli DNA gyrase; [2]): < 4.00; pIC50 (Human topoisomerase I): < 4.00
CNCCC[C@H](CN)NC[C@@H](Cc1ccc2ccccc2c1)NCCc1cccc2ccccc12 [Compound 2580-24]	–	pIC50 (Human Topoisomerase IIα): < 4.07; pIC50 [1]: 5.10; pIC50 (E. coli DNA gyrase): < 4.07; pIC50 (Human topoisomerase I): < 4.07
CNCCC[C@@H](CN[C@@H](CN)Cc1ccc2ccccc2c1)NCCc1cccc2ccccc12 [Compound 2580-33]	–	pIC50 (Human Topoisomerase IIα): < 4.07; pIC50 [1]: 5.10; pIC50 (E. coli DNA gyrase): < 4.07; pIC50 (Human topoisomerase I): < 4.07
